In paper PMC6003700 (European journal of medicinal chemistry, 2018):
Square brackets hold non-standard residues; d marks the D form. Peptide text beside a SMILES is read from it. dPhe(4-CF3) = N[C@H](Cc1ccc(C(F)(F)F)cc1)C(=O)O; Nle = CCCC[C@H](N)C(=O)O

How the values were obtained:
[1] = test system: hMC1R Asp117Ala and Asp121Ala mutants; settings: hMC1R mutants versus wild type; cited from earlier work
MC3R Asp158Ala mutation = settings: MC3R mutant versus wild type; cited from earlier work
[2] = test system: hMC1R Asp117Ala and Asp121Ala mutants; settings: hMC1R mutants versus wild type; cited from earlier work; remark: listed apart in the source
hMC1R = hMC1R (Homo sapiens, UniProt Q01726); assay: cAMP accumulation, HEK293 cells expressing hMC1R; assay type: cell-based; settings: hMC1R agonist EC50 versus other melanocortin receptors
Sequence of hMC1R (Q01726 whole entry): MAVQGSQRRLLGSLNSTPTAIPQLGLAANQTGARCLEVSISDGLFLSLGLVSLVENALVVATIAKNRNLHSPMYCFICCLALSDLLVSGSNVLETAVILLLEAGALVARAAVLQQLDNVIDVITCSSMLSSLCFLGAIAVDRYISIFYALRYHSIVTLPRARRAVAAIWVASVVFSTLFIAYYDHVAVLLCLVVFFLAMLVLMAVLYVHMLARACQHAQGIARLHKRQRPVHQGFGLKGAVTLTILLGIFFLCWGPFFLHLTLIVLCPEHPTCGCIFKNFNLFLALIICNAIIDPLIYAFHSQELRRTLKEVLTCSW

Row | hMC1R selectivity to other MCR subtypes (hMC1R) | Compound | increase on the IC50 value for the Asp117Ala and Asp121Ala mutants [1] | increase for the EC50 value, Asp158Ala mutation (MC3R Asp158Ala mutation) | increase on the EC50 value for the Asp117Ala and Asp121Ala mutants [2]
1 | – | NDP-α-MSH | around 10 fold | more than 350 fold | around 10 fold
2 | at least 25 fold | CCCC[C@H](NC(=O)[C@@H](Cc1ccc(C(F)(F)F)cc1)NC(=O)[C@H](Cc1cnc[nH]1)NC(C)=O)C(=O)N[C@@H](Cc1c[nH]c2ccccc12)C(N)=O [Peptide 5, Ac-His-DPhe(4-CF3)-Nle-Trp-NH2] (Ac-H[dPhe(4-CF3)][Nle]W-NH2) | – | – | –
